Reference: ChEMBL document CHEMBL4507292 (2021)

How the values were obtained:
[1] = target: Serine/threonine-protein kinase/endoribonuclease IRE1 (Homo sapiens) (UniProt O75460); settings: Compound concentration 1000.0 nM
[2] = target: Microtubule-associated serine/threonine-protein kinase 1 (Homo sapiens) (UniProt Q9Y2H9); settings: Compound concentration 1000.0 nM
[3] = target: Serine/threonine-protein kinase PknB (Mycobacterium tuberculosis) (UniProt P9WI81); settings: Compound concentration 1000.0 nM
[4] = target: Mitogen-activated protein kinase kinase kinase kinase 3 (Homo sapiens) (UniProt Q8IVH8); settings: Compound concentration 1000.0 nM
[5] = target: Myosin-IIIa (Homo sapiens) (UniProt Q8NEV4); settings: Compound concentration 1000.0 nM
[6] = target: Death-associated protein kinase 2 (Homo sapiens) (UniProt Q9UIK4); settings: Compound concentration 1000.0 nM
[7] = target: Tyrosine-protein kinase TXK (Homo sapiens) (UniProt P42681); settings: Compound concentration 1000.0 nM
[8] = tested on: Epidermal growth factor receptor (Homo sapiens), P00533 [UNDEFINED MUTATION]; settings: Compound concentration 1000.0 nM
[9] = target: Serine/threonine-protein kinase Nek7 (Homo sapiens) (UniProt Q8TDX7); settings: Compound concentration 1000.0 nM
[10] = target: Serine/threonine-protein kinase 17B (Homo sapiens) (UniProt O94768); settings: Compound concentration 1000.0 nM
[11] = target: NUAK family SNF1-like kinase 1 (Homo sapiens) (UniProt O60285); settings: Compound concentration 1000.0 nM
[12] = target: Dual specificity mitogen-activated protein kinase kinase 4 (Homo sapiens) (UniProt P45985); settings: Compound concentration 1000.0 nM
[13] = target: Phosphatidylinositol 4-kinase beta (Homo sapiens) (UniProt Q9UBF8); settings: Compound concentration 1000.0 nM
[14] = tested on: Phosphatidylinositol 4,5-bisphosphate 3-kinase catalytic subunit alpha isoform (Homo sapiens), P42336 [M1043I]; settings: Compound concentration 1000.0 nM
[15] = target: BMP-2-inducible protein kinase (Homo sapiens) (UniProt Q9NSY1); settings: Compound concentration 1000.0 nM
[16] = target: cGMP-dependent protein kinase 1 (Homo sapiens) (UniProt Q13976); settings: Compound concentration 1000.0 nM
[17] = target: Sigma intracellular receptor 2 (Homo sapiens, UniProt Q5BJF2); settings: Compound concentration 10.0 uM
[18] = target: Phosphatidylinositol 4-phosphate 5-kinase type-1 alpha (Homo sapiens) (UniProt Q99755); settings: Compound concentration 1000.0 nM
[19] = target: T1, 5-hydroxytryptamine receptor 1A (Homo sapiens) (UniProt P08908); settings: Compound concentration 10.0 uM
T1 sequence (whole entry): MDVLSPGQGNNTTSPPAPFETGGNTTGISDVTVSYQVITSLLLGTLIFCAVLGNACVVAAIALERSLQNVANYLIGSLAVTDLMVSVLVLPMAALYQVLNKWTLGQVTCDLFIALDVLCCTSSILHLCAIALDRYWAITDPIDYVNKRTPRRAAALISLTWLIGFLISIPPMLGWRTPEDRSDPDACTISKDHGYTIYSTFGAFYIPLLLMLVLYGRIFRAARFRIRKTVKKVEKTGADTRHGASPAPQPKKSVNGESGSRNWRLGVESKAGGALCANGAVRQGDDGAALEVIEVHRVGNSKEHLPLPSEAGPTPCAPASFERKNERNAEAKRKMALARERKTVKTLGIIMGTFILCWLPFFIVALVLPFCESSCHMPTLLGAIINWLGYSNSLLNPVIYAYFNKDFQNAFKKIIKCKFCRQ

[20] = target: Mast/stem cell growth factor receptor Kit (Homo sapiens) (UniProt P10721); settings: Compound concentration 1000.0 nM
[21] = target: 5-hydroxytryptamine receptor 1B (Homo sapiens) (UniProt P28222); settings: Compound concentration 10.0 uM
[22] = target: Mitogen-activated protein kinase kinase kinase 10 (Homo sapiens) (UniProt Q02779); settings: Compound concentration 1000.0 nM
[23] = target: Tyrosine-protein kinase ZAP-70 (Homo sapiens) (UniProt P43403); settings: Compound concentration 1000.0 nM
[24] = target: Serine/threonine-protein kinase Nek5 (Homo sapiens) (UniProt Q6P3R8); settings: Compound concentration 1000.0 nM
[25] = target: Homeodomain-interacting protein kinase 1 (Homo sapiens) (UniProt Q86Z02); settings: Compound concentration 1000.0 nM
[26] = target: Sodium-dependent dopamine transporter (Homo sapiens, UniProt Q01959); settings: Compound concentration 10.0 uM
[27] = target: Tyrosine-protein kinase Blk (Homo sapiens) (UniProt P51451); settings: Compound concentration 1000.0 nM
[28] = target: T2, D(4) dopamine receptor (Homo sapiens) (UniProt P21917); settings: Compound concentration 10.0 uM
T2 sequence (whole entry): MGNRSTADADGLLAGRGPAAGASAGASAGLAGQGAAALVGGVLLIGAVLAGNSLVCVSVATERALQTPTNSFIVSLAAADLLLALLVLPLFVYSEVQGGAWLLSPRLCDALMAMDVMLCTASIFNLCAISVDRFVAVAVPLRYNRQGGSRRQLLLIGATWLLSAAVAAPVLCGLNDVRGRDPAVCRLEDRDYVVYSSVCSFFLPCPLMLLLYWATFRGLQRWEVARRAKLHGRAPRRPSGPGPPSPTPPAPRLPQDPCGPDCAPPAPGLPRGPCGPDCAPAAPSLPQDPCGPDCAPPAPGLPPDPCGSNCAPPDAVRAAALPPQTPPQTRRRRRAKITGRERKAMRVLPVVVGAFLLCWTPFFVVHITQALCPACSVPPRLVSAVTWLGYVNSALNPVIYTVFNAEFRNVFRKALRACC

[29] = tested on: Mast/stem cell growth factor receptor Kit (Homo sapiens), P10721 [D816V]; settings: Compound concentration 1000.0 nM
[30] = target: Ribosomal protein S6 kinase alpha-1 (Homo sapiens) (UniProt Q15418); settings: Compound concentration 1000.0 nM
[31] = target: Mitogen-activated protein kinase kinase kinase 5 (Homo sapiens) (UniProt Q99683); settings: Compound concentration 1000.0 nM
[32] = target: Serine/threonine-protein kinase PAK 1 (Homo sapiens) (UniProt Q13153); settings: Compound concentration 1000.0 nM
[33] = target: MAP/microtubule affinity-regulating kinase 3 (Homo sapiens) (UniProt P27448); settings: Compound concentration 1000.0 nM

Tyrosine-protein kinase TXK (Homo sapiens), sequence (P42681 whole entry): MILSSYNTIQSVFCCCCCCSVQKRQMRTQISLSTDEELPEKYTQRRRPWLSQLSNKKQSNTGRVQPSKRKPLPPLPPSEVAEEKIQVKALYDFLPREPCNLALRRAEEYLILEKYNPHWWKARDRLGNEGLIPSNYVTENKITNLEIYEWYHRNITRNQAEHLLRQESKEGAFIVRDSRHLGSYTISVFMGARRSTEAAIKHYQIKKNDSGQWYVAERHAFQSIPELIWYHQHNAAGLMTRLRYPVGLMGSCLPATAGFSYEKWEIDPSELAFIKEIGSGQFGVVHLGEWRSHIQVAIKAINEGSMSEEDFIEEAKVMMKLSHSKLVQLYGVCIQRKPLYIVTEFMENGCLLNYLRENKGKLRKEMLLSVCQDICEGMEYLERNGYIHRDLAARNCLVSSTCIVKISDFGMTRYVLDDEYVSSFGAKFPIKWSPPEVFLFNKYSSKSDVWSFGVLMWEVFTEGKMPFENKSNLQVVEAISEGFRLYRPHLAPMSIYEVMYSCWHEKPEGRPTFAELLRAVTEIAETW
Homeodomain-interacting protein kinase 1 (Homo sapiens), sequence (Q86Z02 whole entry, looked up): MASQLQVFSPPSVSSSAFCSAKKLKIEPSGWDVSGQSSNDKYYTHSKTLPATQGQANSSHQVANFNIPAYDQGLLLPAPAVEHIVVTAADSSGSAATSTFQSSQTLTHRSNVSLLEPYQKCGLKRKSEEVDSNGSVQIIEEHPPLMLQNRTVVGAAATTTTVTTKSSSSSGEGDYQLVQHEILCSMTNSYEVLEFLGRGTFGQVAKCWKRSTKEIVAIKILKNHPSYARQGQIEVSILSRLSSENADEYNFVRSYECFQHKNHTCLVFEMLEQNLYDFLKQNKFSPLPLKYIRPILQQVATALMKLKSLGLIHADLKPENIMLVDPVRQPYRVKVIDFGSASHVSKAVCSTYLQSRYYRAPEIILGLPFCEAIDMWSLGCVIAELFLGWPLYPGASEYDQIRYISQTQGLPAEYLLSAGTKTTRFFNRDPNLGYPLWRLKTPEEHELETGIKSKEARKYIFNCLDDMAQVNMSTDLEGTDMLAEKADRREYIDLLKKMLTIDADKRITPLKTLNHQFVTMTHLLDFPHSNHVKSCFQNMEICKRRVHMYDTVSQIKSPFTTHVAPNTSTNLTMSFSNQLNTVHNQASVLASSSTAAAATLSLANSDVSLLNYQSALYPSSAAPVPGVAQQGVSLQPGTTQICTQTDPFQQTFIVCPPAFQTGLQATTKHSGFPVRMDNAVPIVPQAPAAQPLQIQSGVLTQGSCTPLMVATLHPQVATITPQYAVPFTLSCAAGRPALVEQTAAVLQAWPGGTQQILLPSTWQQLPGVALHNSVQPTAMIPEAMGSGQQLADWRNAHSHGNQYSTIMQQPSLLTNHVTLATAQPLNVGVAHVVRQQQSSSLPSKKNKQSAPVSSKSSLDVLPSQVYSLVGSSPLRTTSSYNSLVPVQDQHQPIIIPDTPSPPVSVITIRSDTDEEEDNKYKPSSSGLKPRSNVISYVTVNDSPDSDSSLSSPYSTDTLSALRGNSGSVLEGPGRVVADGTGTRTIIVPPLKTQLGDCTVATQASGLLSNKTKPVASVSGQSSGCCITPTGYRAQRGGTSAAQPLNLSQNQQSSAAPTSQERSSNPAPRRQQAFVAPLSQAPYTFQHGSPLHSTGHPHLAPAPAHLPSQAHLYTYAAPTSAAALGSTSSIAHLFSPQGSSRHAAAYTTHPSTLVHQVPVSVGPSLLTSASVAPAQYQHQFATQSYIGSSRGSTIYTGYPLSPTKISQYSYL
Phosphatidylinositol 4,5-bisphosphate 3-kinase catalytic subunit alpha isoform (Homo sapiens), P42336 [M1043I], sequence (P42336 whole entry M1043I, canonical isoform): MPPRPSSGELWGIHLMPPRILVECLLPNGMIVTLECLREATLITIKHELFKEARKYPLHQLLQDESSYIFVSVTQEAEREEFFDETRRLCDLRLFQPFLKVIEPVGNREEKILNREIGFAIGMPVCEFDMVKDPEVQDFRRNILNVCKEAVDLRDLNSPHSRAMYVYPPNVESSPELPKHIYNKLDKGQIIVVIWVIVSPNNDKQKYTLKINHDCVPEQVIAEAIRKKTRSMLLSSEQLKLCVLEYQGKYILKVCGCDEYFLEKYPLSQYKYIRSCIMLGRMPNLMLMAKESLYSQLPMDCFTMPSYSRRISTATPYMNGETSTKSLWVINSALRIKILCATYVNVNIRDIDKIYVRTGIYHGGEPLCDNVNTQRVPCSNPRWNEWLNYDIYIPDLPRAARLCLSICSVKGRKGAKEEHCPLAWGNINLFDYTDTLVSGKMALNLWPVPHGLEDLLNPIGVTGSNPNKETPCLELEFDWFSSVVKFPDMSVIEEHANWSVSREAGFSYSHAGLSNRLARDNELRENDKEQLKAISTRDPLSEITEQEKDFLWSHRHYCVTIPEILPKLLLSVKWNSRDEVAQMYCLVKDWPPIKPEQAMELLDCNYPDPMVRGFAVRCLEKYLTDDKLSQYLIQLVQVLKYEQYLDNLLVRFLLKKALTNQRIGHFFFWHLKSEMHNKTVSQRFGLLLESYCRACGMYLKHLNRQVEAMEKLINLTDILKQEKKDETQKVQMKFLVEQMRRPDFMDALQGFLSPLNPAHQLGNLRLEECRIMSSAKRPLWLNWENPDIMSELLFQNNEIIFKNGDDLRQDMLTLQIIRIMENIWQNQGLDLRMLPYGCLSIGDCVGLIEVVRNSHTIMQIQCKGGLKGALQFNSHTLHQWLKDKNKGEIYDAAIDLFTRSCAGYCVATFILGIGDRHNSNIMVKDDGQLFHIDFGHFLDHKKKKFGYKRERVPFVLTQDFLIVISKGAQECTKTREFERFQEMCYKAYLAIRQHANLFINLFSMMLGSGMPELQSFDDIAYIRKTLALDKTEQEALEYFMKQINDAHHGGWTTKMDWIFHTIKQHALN
Serine/threonine-protein kinase/endoribonuclease IRE1 (Homo sapiens), sequence (O75460 19-977 limits assumed): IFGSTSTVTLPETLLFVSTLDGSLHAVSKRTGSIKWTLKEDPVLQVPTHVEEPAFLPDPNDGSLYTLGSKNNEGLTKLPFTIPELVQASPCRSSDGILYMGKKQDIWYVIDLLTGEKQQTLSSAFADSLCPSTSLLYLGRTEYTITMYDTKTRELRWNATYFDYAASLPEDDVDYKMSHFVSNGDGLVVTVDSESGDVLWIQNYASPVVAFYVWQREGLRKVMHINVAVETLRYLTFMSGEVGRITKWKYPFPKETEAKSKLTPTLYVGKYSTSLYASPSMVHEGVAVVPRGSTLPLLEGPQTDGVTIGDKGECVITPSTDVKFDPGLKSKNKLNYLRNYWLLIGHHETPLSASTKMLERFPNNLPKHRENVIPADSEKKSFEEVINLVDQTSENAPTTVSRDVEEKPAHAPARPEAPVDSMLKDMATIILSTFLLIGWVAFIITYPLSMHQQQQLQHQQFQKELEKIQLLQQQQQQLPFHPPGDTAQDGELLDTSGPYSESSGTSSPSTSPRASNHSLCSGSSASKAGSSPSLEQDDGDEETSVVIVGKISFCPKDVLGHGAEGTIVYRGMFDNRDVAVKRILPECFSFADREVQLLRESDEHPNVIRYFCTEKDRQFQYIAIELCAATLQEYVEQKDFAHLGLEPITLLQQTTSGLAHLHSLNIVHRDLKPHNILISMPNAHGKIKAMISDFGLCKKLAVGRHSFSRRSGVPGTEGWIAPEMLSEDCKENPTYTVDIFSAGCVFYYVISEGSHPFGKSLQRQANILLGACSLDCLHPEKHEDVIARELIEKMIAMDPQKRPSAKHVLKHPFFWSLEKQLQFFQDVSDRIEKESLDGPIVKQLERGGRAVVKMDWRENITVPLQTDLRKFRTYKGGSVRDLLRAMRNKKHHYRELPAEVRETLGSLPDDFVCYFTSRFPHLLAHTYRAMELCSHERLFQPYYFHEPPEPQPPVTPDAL
Epidermal growth factor receptor (Homo sapiens), P00533 [UNDEFINED MUTATION], sequence (P00533 whole entry, looked up, change not shown): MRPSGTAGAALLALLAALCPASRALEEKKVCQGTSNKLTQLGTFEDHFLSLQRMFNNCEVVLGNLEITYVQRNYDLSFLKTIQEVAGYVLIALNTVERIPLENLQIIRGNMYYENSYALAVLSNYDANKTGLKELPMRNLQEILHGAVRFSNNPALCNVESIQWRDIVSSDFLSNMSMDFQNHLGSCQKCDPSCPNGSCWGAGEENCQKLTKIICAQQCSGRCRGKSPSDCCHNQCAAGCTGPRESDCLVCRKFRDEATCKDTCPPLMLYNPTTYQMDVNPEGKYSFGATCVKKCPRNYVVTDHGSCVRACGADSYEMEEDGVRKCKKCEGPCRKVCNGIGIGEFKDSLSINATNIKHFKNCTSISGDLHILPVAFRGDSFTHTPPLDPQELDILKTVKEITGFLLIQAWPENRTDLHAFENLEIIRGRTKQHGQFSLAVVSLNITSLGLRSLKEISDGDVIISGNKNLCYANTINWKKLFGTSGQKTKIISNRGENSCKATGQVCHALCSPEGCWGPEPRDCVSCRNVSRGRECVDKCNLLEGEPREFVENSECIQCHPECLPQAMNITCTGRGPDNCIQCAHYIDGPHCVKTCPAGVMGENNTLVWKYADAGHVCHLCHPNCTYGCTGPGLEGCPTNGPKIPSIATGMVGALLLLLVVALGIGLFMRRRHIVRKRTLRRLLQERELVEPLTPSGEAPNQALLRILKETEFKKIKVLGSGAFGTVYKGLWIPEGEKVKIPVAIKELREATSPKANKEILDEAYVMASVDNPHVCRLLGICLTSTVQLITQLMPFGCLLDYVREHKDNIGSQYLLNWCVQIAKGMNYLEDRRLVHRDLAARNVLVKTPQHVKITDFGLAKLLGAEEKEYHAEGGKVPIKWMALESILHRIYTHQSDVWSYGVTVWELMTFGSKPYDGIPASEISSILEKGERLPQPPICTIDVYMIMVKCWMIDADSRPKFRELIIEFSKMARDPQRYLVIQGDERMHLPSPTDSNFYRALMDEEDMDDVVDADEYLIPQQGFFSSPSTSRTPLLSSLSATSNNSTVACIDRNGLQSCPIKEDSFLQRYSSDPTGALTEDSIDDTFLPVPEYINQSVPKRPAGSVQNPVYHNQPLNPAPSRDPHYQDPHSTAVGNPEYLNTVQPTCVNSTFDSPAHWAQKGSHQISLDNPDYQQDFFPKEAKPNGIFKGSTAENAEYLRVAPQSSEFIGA

Compound	residual activity [1]	residual activity [2]	residual activity [3]	residual activity [4]	residual activity [5]	residual activity [6]	residual activity [7]	residual activity [8]	residual activity [9]	residual activity [10]	residual activity [11]	residual activity [12]	residual activity [13]	residual activity [14]	residual activity [15]	residual activity [16]	inhibition [17]	residual activity [18]	inhibition [19]	residual activity [20]	further results
Cc1c(C(=O)O)cc(-c2ccc(C3CCNCC3)cc2)c2ccc(-c3ccc(C(F)(F)F)cc3)cc12 [PPTN-NC]	100%	100%	100%	100%	100%	100%	100%	100%	100%	100%	100%	100%	100%	100%	83%	97%	92.7%	70%	1.01%	100%	inhibition [21]: 14.4%; residual activity [22]: 100%; residual activity [23]: 100%; residual activity [24]: 100%; residual activity [25]: 100%; inhibition [26]: 31.2%; residual activity [27]: 100%; inhibition [28]: 8.42%; residual activity [29]: 100%; residual activity [30]: 100%; residual activity [31]: 100%; residual activity [32]: 100%; residual activity [33]: 100%
O=C(O)c1cc(-c2ccc(C3CCNCC3)cc2)c2ccc(-c3ccc(C(F)(F)F)cc3)cc2c1 [PPTN]	100%	100%	100%	100%	100%	100%	100%	100%	100%	100%	100%	100%	100%	100%	84%	100%	95.6%	78%	11.2%	100%	inhibition [21]: 20.4%; residual activity [22]: 100%; residual activity [23]: 100%; residual activity [24]: 100%; residual activity [25]: 97%; inhibition [26]: 37.7%; residual activity [27]: 86%; inhibition [28]: 10.4%; residual activity [29]: 100%; residual activity [30]: 100%; residual activity [31]: 100%; residual activity [32]: 100%; residual activity [33]: 100%
